Data published in patent publication US9475822B2, “Substituted 2- amidoquinazol-4-ones as matrix metalloproteinase-13 inhibitors” (Takeda Pharmaceutical Company Limited, priority 2004, dated 2016).

Tested on: not given
Experiment: not given
Conditions: not given

SMILES	melting point
COc1cccc(CNC(=O)c2nc3cnn(CCOc4ccc(C(=O)O)cc4)c3c(=O)[nH]2)c1 [Example 250, 4-[2-(5-{[(3-methoxybenzyl)amino]carbonyl}-7-oxo-6,7-dihydro-1H-pyrazolo[4,3-d]pyrimidin-1-yl)ethoxy]benzoic acid]	230 to 231 °C
CCOC(=O)Cc1csc2nc(C(=O)NCc3cccc(OC)c3)[nH]c(=O)c12 [Example 251, ethyl (2-{[(3-methoxybenzyl)amino]carbonyl}-4-oxo-3,4-dihydrothieno[2,3-d]pyrimidin-5-yl)acetate]	169 to 171 °C
COc1cccc(CNC(=O)c2nc3cnn(CCCc4ccccc4)c3c(=O)[nH]2)c1 [Example 243, N-(3-methoxybenzyl)-7-oxo-1-(3-phenylpropyl)-6,7-dihydro-1H-pyrazolo[4,3-d]pyrimidine-5-carboxamide]	138 to 140 °C
COc1cc(CNC(=O)c2nc3cnn(CCCc4ccccc4)c3c(=O)[nH]2)ccc1F [Example 244, N-(4-fluoro-3-methoxybenzyl)-7-oxo-1-(3-phenylpropyl)-6,7-dihydro-1H-pyrazolo[4,3-d]pyrimidine-5-carboxamide]	155 to 157 °C
COc1cccc(CNC(=O)c2nc3ccc(N)cc3c(=O)[nH]2)c1 [Example 100, 6-amino-N-{[3-(methyloxy)phenyl]methyl}-4-oxo-3,4-dihydroquinazoline-2-carboxamide]	223 to 225 °C
COc1cccc(CNC(=O)c2nc3ccc(CN4CCOCC4)cc3c(=O)[nH]2)c1 [Example 116, N-{[3-(methyloxy)phenyl]methyl}-6-(morpholin-4-ylmethyl)-4-oxo-3,4-dihydroquinazoline-2-carboxamide]	126 to 129 °C
CCOC(=O)Cc1ccc(OCc2csc3nc(C(=O)NCc4cccc(OC)c4)[nH]c(=O)c23)cc1 [Example 256, ethyl {4-[(2-{[(3-methoxybenzyl)amino]carbonyl}-4-oxo-3,4-dihydrothieno[2,3-d]pyrimidin-5-yl)methoxy]phenyl}acetate]	175 to 178 °C
COc1cccc(CNC(=O)c2nc3ccc(Cl)cc3c(=O)[nH]2)c1 [Example 83, 6-chloro-N-{[3-(methyloxy)phenyl]methyl}-4-oxo-3,4-dihydroquinazoline-2-carboxamide]	203 to 206 °C
COc1cccc(CNC(=O)c2nc3scc(COc4ccc(CC(=O)O)cc4)c3c(=O)[nH]2)c1 [Example 257, {4-[(2-{[(3-methoxybenzyl)amino]carbonyl}-4-oxo-3,4-dihydrothieno[2,3-d]pyrimidin-5-yl)methoxy]phenyl}acetic acid]	228 to 230 °C
COc1cccc(CNC(=O)c2nc3ccc(I)cc3c(=O)[nH]2)c1 [Example 104, 6-iodo-N-{[3-(methyloxy)phenyl]methyl}-4-oxo-3,4-dihydroquinazoline-2-carboxamide]	219 to 220 °C

Molecular target: T1, MMP-13 (Homo sapiens, UniProt P45452)
T1 construct: purchased GenzymeTechne
Experiment: MMP-13 inhibitory activity (fluorogenic peptide substrate enzyme assay)
Format: biochemical
Conditions: compound 1 μM; substrate Cy3-PLGLK(Cy5Q)AR-NH2; 37° C., 40 min
Experimental: To 10 μg of MMP-13 precursor (GenzymeTechne) was added 1 ml of assay buffer (50 mM Tris-HCl (pH 7.5), 10 mM CaCl2, 150 mM NaCl, 0.05% Brij-35), and 4-aminophenylmercuric acid (Sigma) was added to the final concentration of 1 mM. The MMP-13 precursor was activated by incubating at 37° C. for 2 hrs.
In a 96 well black plate (Corning), to 6.3 ng/ml of MMP-13 solution (49 μl) diluted with assay buffer was added the test compound (1 μl) diluted with dimethyl sulfoxide (DMSO) and 620 nM Cy3-PLGLK(Cy5Q)AR—NH2 (50 μl, synthesized by Amersham Biosciences) in assay buffer was added to start the enzyme reaction. After incubation at 37° C. for 40 min, 500 mM EDTA solution (6 μl) was added to stop the reaction. For measurement, Farcyte (Amersham Biosciences) was used to measure at excitation wavelength 535 nm and measurement wavelength 595 nm.
T: value of well with addition of DMSO instead of test compound
C: value of well with addition of DMSO instead of test compound and addition of EDTA solution before addition of substrate solution
X: value of well with addition of test compound

SMILES	MMP-13 activity inhibitory rate (%)
COc1cccc(CNC(=O)c2nc3scc(COCc4ccc(C(=O)[O-])cc4)c3c(=O)[n-]2)c1.[Na+].[Na+] [Example 384, Disodium 4-{[({2-[({[3-(methyloxy)phenyl]methyl}amino)carbonyl]-4-oxo-4H-thieno[2,3-d]pyrimidin-3-id-5-yl}methyl)oxy]methyl}benzoate]	91%
COc1cccc(CNC(=O)c2nc3ccc(F)c(OCCc4ccc(C(=O)[O-])cc4)c3c(=O)[n-]2)c1.[Na+].[Na+] [Example 287, Disodium 4-[2-({6-fluoro-2-[({[3-(methyloxy)phenyl]methyl}amino)carbonyl]-4-oxo-4H-quinazolin-3-id-5-yl}oxy)ethyl]benzoate]	98%
COc1cccc(CNC(=O)c2nc3scc(COCc4ccc(C(=O)[O-])cc4)c3c(=O)[nH]2)c1.[K+] [Example 385, Potassium 4-{[({2-[({[3-(methyloxy)phenyl]methyl}amino)carbonyl]-4-oxo-3,4-dihydrothieno[2,3-d]pyrimidin-5-yl}methyl)oxy]methyl}benzoate]	96%

Same assay, conditions: compound 1 μM; substrate Cy3-PLGLK(Cy5Q)AR-NH2; 37° C., 40 min; 1 µM

SMILES	MMP-13 activity inhibitory rate (%)
COc1cccc(CNC(=O)c2nc3scc(COCc4ccc(C(=O)O)cc4)c3c(=O)[nH]2)c1 [Example 217, 4-{[({2-[({[3-(methyloxy)phenyl]methyl}amino)carbonyl]-4-oxo-3,4-dihydrothieno[2,3-d]pyrimidin-5-yl}methyl)oxy]methyl}benzoic acid]	100%
COc1cccc(CNC(=O)c2nc3scc(COCc4ccc(C(=O)O)cc4)c3c(=O)[nH]2)c1 [Example 386, Dipotassium 4-{[({2-[({[3-(methyloxy)phenyl]methyl}amino)carbonyl]-4-oxo-4H-thieno[2,3-d]pyrimidin-3-id-5-yl}methyl)oxy]methyl}benzoate]	94%

Same assay, conditions: compound 1 μM; substrate Cy3-PLGLK(Cy5Q)AR-NH2; 37° C., 40 min; read-out: MMP-13 activity inhibitory rate (%)

SMILES	inhibition at 1 µM
O=C(O)c1ccc(COCc2csc3nc(C(=O)NCc4ccc(F)c(Cl)c4)[nH]c(=O)c23)cc1 [Example 339, 4-[({[2-({[(3-chloro-4-fluorophenyl)methyl]amino}carbonyl)-4-oxo-3,4-dihydrothieno[2,3-d]pyrimidin-5-yl]methyl}oxy)methyl]benzoic acid]	96%
Cc1cc(CNC(=O)c2nc3scc(COCc4ccc(C(=O)O)cc4)c3c(=O)[nH]2)ccc1F [Example 341, 4-[({[2-({[(4-fluoro-3-methylphenyl)methyl]amino}carbonyl)-4-oxo-3,4-dihydrothieno[2,3-d]pyrimidin-5-yl]methyl}oxy)methyl]benzoic acid]	98%
COc1cccc(CNC(=O)c2nc3ccccc3c(=O)[nH]2)c1 [Example 1, N-{[3-(methyloxy)phenyl]methyl}-4-oxo-3,4-dihydroquinazoline-2-carboxamide]	91%
COc1cccc(CNC(=O)c2nc3sccc3c(=O)[nH]2)c1 [Example 209, N-{[3-(methyloxy)phenyl]methyl}-4-oxo-3,4-dihydrothieno[2,3-d]pyrimidine-2-carboxamide]	94%
CCOc1cccc(CNC(=O)c2nc3scc(COCc4ccc(C(=O)O)cc4)c3c(=O)[nH]2)c1 [Example 366, 4-{[({2-[({[3-(ethyloxy)phenyl]methyl}amino)carbonyl]-4-oxo-3,4-dihydrothieno[2,3-d]pyrimidin-5-yl}methyl)oxy]methyl}benzoic acid]	93%
COc1cccc(CNC(=O)c2nc3ccc(F)c(OCCc4ccc(C(=O)O)cc4)c3c(=O)[nH]2)c1 [Example 179, 4-[2-({6-Fluoro-2-[({[3-(methyloxy)phenyl]methyl}amino)carbonyl]-4-oxo-3,4-dihydroquinazolin-5-yl}oxy)ethyl]benzoic acid]	99%

Same assay, conditions: read-out: MMP-13 activity inhibitory rate (%), compound 1 μM; substrate Cy3-PLGLK(Cy5Q)AR-NH2; 37° C., 40 min

SMILES	inhibition at 1 µM
COc1cccc(CNC(=O)c2nc3scc(COCc4ccc(C(=O)O)cc4)c3c(=O)[nH]2)c1 [Example 383, Sodium 4-{[({2-[({[3-(methyloxy)phenyl]methyl}amino)carbonyl]-4-oxo-3,4-dihydrothieno[2,3-d]pyrimidin-5-yl}methyl)oxy]methyl}benzoate]	91%
COc1cccc(CNC(=O)c2nc3ccc(F)c(OCCc4ccc(C(=O)O)cc4)c3c(=O)[nH]2)c1 [Example 286, Sodium 4-[2-({6-fluoro-2-[({[3-(methyloxy)phenyl]methyl}amino)carbonyl]-4-oxo-3,4-dihydroquinazolin-5-yl}oxy)ethyl]benzoate]	97%
